Laboratory results from patent US20220017478A1, “2-BENZOYLAMINOBENZAMIDE DERIVATIVES AS BCL-3 INHIBITORS” (University College Cardiff Consultants Limited, priority 2013, published 2022).
Entries after “also recorded” stand apart in the source; their conditions may differ. Read-outs that look alike come from different tables or passages of the source.

Columns and labels:
NF-κB activity [1] = test: NF-κB luciferase reporter assay in MDA-MB-231 cells overexpressing Bcl-3; format: cell-based, human; conditions: for effect on NF-κB activity: 1 μM, 24 hrs, MDA-MB-231 Bcl-3 over-expressing cells, vs DMSO control / Compound 1a; for IC50: Homo sapiens
Protocol: (§1) For NF-κB luciferase assays, cells were seeded into clear bottom black 96-well plates (Corning Inc., Lowell, US) in antibiotic free culture media in appropriate density. After 24 hrs, cells were transfected with 10 ng of 3×κB luciferase plasmid and 10 ng of pcDNA3.1-Lacl plasmid per well. Empty pcDNA3.1 plasmid was also included to normalize the total weight of DNA transfected to 100 ng. For positive and negative controls respectively, 10 ng of pGL3control or pGL3basic were transfected in place of 3×KB luciferase plasmid. Transfection was carried out using Lipofectamine LTX reagents (Invitrogen, Paisley, UK).
After 48 hrs post-transfection with luciferase reporter plasmid, the media was aspirated and cells were lyzed using 50 μl/well of Glo-lysis buffer (Promega, Southampton, UK). The plate was left on a rocker for 20 min to facilitate complete cell lysis. Then, 20 μl of lysate from each well was removed and transferred into a new clear bottom black well plate for measuring LacZ activity as a transfection efficiency control and followed by addition of 20 ul/well of Beta-Glo substrate (Promega, Southampton, UK) and cultivation at room temperature for at least 20 min. Subsequently, 30 μl/well of Bright-Glo luciferase substrate (Promega, Southampton, UK) was added to the original plate and asses immediately for luminescence activity. The luminescence produced from either reaction was read using a Flurostar Optima plate reader (BMG tabtech, Bucks, UK).
The effect of Compound 1a on NF-κB activity was determined by NF-κB luciferase assay in MDA-MB-231 and HEK-293 cells overexpressing Bcl-3 and HEK-293 cells overexpressing p52. Cells were cultivated with Compound 1a over a range of molarities for 24 hrs before being transfected with NF-κB luciferase reporter plasmid for 48 hrs and analyzed for NF-κB activity.
The effect of selected analogues on NF-κB activity was determined by NF-KB luciferase assay in MDA-MB-231 cells. MDA-MB-231 Bcl-3 over-expressing cells were cultivated with compounds from series 1-3 at 1 μM concentration for 24 hrs before being transfected with NF-κB luciferase reporter plasmid for 48 hrs together with controls and analyzed for NF-κB activity.
Based on the results for the series of analogues, we have established dose response curve for selected analogues from series 1 (If), from series 2 (2a and 2c) and from series 3 (3a) over a range of molarities. MDA-MB-231 Bcl-3 WT cells were cultivated with selected compounds from series 1-3 over a range of molarities for 24 hrs before being transfected with NF-κB luciferase reporter plasmid for 48 hrs together with controls and analyzed for NF-κB activity (FIG. 7).

NF-κB activity [2] = test: NF-κB luciferase reporter assay in HEK-293 cells overexpressing Bcl-3; format: cell-based; conditions: Homo sapiens, HEK293
Protocol: as §1
(§2) After 48 hrs post-transfection with luciferase reporter plasmid, the media was aspirated and cells were lyzed using 50 μl/well of Glo-lysis buffer (Promega, Southampton, UK). The plate was left on a rocker for 20 min to facilitate complete cell lysis. […] Subsequently, 30 μl/well of Bright-Glo luciferase substrate (Promega, Southampton, UK) was added to the original plate and asses immediately for luminescence activity. The luminescence produced from either reaction was read using a Flurostar Optima plate reader (BMG tabtech, Bucks, UK).
(§3) The effect of Compound 1a on NF-κB activity was determined by NF-κB luciferase assay in MDA-MB-231 and HEK-293 cells overexpressing Bcl-3 and HEK-293 cells overexpressing p52. […]

SKBR3 cells = test: Cell Titre Blue viability assay, SKBR3; format: cell-based, human; conditions: Homo sapiens, SK-BR-3; SKBR3, 24 hrs, extrapolated with GraphPad; read-out: IC50 cell viability, extrapolated from the dose-response curve
Protocol: (§4) The viability of cells at experimental endpoints for particular assays was determined using the Cell Titre Blue reagent (Promega, Southampton, UK). This reagent measures the cellular metabolic activity using resazurin as an indicator dye. Viable cells, therefore metabolically active, will reduce resazurin into highly fluorescent resofurin. The resulting fluorescence levels are measured and indicate cell viability.
(§5) Cells were plated at low confluency into 96 well plates in 100 μl of complete growth media in triplicates and were incubated at 37° C. in 5% CO2 for the desired test exposure period. For each 100 μl of media in 96 well plates, 20 μl Cell Titre Blue reagent was added followed by incubation for an hour at 37° C. in 5% CO2. Fluorescence was then measured by setting excitation/emission wavelengths to 560/590 nm on a Flurostar Optima plate reader (BMG tabtech, Bucks, UK).
(§6) To compare the toxicity in tumorigenic as well as in non-tumorigenic breast cancer cells, we selected MCF-10A as a non-tumorigenic human breast cancer cell line and MDA-MB-231 and SKBR3 as cell models of tumorigenic human breast cancer cell line.
(§7) Cell toxicity was evaluated using the Cell Titre Blue viability assay over a range of molarities for 24 hrs.

[3] = Cell Titre Blue viability assay, SKBR3; format: cell-based, human; conditions: human, SKBR3 cells; SKBR3, 1 mM, 24 hrs; read-out: cell viability compared to DMSO control (100%)
Protocol: as §4, §5, §6, §7

MDA-MB-231 cells = test: Cell Titre Blue viability assay, MDA-MB-231; conditions: Homo sapiens, MDA-MB-231, 24 h, read-out: IC50 cell viability, extrapolated from the dose-response curve
Protocol: as §4, §5, §7
Selected compounds were dissolved in DMSO and diluted to a highest concentration of 10 μM (0.1% DMSO). In all assays, a DMSO control was always used. Selected compounds were tested for cell toxicity in HEK-293 and MDA-MB-231 cells before being used in cell-based assays. Cell toxicity was evaluated using the Cell Titre Blue viability assay over a range of molarities for 24 hrs

NF-κB activity [4] = test: NF-κB luciferase reporter assay in HEK-293 p52 overexpressing cells; format: cell-based; conditions: Homo sapiens, HEK293
Protocol: as §1, §2, §3

MCF-10A cells = test: Cell Titre Blue viability assay, MCF-10A; format: cell-based, human; conditions: Homo sapiens, 24 hrs, extrapolated with GraphPad, read-out: IC50 cell viability, extrapolated from the dose-response curve
Protocol: as §4, §5, §6, §7

[5] = Cell Titre Blue viability assay, MCF-10A; format: cell-based, human; conditions: human, MCF-10A cells, 1 mM, read-out: cell viability compared to DMSO control (100%)
Protocol: as §4, §5, §6, §7

[6] = Solubility in commonly used solvents and PBS; format: physicochemical
Protocol: We established that the solubility of Compound 1a in most commonly used solvents is very low (Table 2) which represents an issue for biological evaluation. Therefore a hydrochloric salt of Compound 1a was synthesised and the solubility was analyzed. The obtained salt had improved solubility in water and methanol (Table 2), however it was not soluble (<0.1 g/100 ml) in Phosphate Buffered Saline (PBS). PBS is a water-based salt solution containing sodium chloride, sodium phosphate, potassium chloride and potassium phosphate, while the buffer's phosphate groups help to maintain a constant pH. PBS is non-toxic and is commonly used as an isotonic buffered solution for cell-based assays and animal studies.

[7] = MDA-MB-231 Bcl-3 WT, 24 hrs then reporter 48 hrs, read-out: IC50 NF-κB activity
[8] = Table 3, MDA-MB-231, read-out: NF-κB assay (μM) IC50
[9] = MDA-MB-231 overexpressing Bcl-3, 24 hrs then reporter 48 hrs, read-out: IC50 NF-κB activity

Row | IC50 (NF-κB activity [1]; [7]) | IC50 (NF-κB activity [1]; [8]) | IC50 (NF-κB activity [1]; [9]) | IC50 (NF-κB activity [2]) | IC50 (SKBR3 cells) | IC50 (MDA-MB-231 cells) | IC50 (NF-κB activity [4]) | Solubility ([6]; DMSO) | Solubility ([6]; Dichloromethane) | Solubility ([6]; Diethyl ether) | Solubility ([6]; Ethanol) | Solubility ([6]; Ethyl acetate) | Solubility ([6]; Methanol) | Solubility ([6]; water, read-out: Solubility) | Structure (SMILES) | effect on NF-κB activity (NF-κB activity [1]) | viability at 24 h, 1 mM [3] | IC50 (MCF-10A cells) | viability at 24 h, 1000 µM [5]
1 | 1.07 µM | 1.07 µM |  |  |  |  |  |  |  |  |  |  |  |  | COc1cccc(C(=O)NCCN2CCOCC2)c1NC(=O)c1ccccc1F [Compound 3a, 2-[(2-fluorobenzoyl)amino]-3-methoxy-N-(2-morpholin-4-ylethyl) benzamide] | comparable effect on NF-κB activity with Compound 1a |  |  | 
2 |  | 0.00697 µM | 0.00697 µM |  |  |  |  |  |  |  |  |  |  |  | COc1ccc(C(=O)Nc2ccccc2C(=O)NCCN2CCOCC2)cc1 [Compound 1f, 2-[(4-methoxybenzoyl)amino]-N-(2-morpholin-4-ylethyl)benzamide] | significant decrease |  |  | 
3 |  | 0.0454 µM | 0.0494 µM | 0.16 µM | 1370 µM | 2700 µM | 0.211 µM | 3.71 g/100 ml | 2.91 g/100 ml | 0.09 g/100 ml | 0.09 g/100 ml | 0.34 g/100 ml | 0.20 g/100 ml | < 0.1 mg/mL | O=C(Nc1ccccc1C(=O)NCCN1CCOCC1)c1ccccc1F [Compound 1a, 2-[(2-fluorobenzoyl)amino]-N-(2-morpholin-4-ylethyl)benzamide] | significant decrease; also recorded: most potent suppression of NF-κB activity | 57% | 14900 µM | 96%
4 | 2.5 µM | 2.5 µM |  |  |  |  |  |  |  |  |  |  |  |  | O=C(Nc1ccccc1C(=O)NCCCN1CCOCC1)c1ccccc1F [Compound 2a] | significantly decreased NF-κB activity; also recorded: comparable activity with Compound 1a |  |  | 
